Four compounds from patent US20220274979A1 (Bayer Pharma Aktiengesellschaft, priority 2018, published 2022) can be followed below.

This assay concerns the target T1, Epidermal Growth Factor Receptor (EGFR) (Homo sapiens, UniProt P00533).
T1 construct: purchased Sigma-Aldrich E3641
Nature of the assay: EGFR kinase assay (TR-FRET). Type of assay: biochemical. As to conditions: 10 μM ATP; read-out: EGFR kinase inhibition IC50. The source says:
EGFR inhibitory activity of compounds of the present invention was quantified employing the TR-FRET based EGFR assay as described in the following paragraphs.
Epidermal Growth Factor Receptor (EGFR) affinity purified from human carcinoma A431 cells (Sigma-Aldrich, # E3641) was used as kinase. As substrate for the kinase reaction the biotinylated peptide biotin-Ahx-[…] (SEQ ID NO: 8, C-terminus in amid form) was used which can be purchased e.g. form the company Biosyntan GmbH (Berlin-Buch, Germany).
For the assay 50 nL of a 100 fold concentrated solution of the test compound in DMSO was pipetted into a black low volume 384 well microtiter plate (Greiner Bio-One, Frickenhausen, Germany), 2 μL of a solution of EGFR in aqueous assay buffer [50 mM Hepes/HCl pH 7.0, 1 mM MgCl2, 5 mM MnCl2, 0.5 mM activated sodium ortho-vanadate, 0.005% (v/v) Tween-20]were added and the mixture was incubated for […] at 22° C. to allow pre-binding of the test compounds to the enzyme before the start of the kinase reaction. Then the kinase reaction was started by the addition of 3 μL of a solution of adenosine-tri-phosphate (ATP, 16.7 μM=>final conc. in the 5 μL assay volume is 10 μM) and substrate (1.67 μM =>final conc. in the 5 μL assay volume is 1μM) in assay buffer and the resulting mixture was incubated for a reaction time of […] at 22° C. The concentration of EGFR was adjusted depending of the activity of the enzyme lot and was chosen appropriate to have the assay in the linear range, typical concentration were about 3 U/ml. The reaction was stopped by the addition of 5 μl of a solution of HTRF detection reagents (0.1 μM streptavidine-XL665 [Cis Biointernational]and 1 nM PT66-Tb-Cryptate, an terbium-cryptate labelled anti-phospho-tyrosine antibody from Cis Biointernational [instead of the PT66-Tb-cryptate PT66-Eu-Chelate from Perkin Elmer can also be used]) in an aqueous EDTA-solution (80 mM EDTA, 0.2% (w/v) bovine serum albumin in 50 mM HEPES pH 7.5).
The resulting mixture was incubated 1 h at 22° C. to allow the binding of the biotinylated phosphorylated peptide to the streptavidine-XL665 and the PT66-Eu-Chelate. Subsequently the amount of phosphorylated substrate was evaluated by measurement of the resonance energy transfer from the PT66-Tb-Cryptate to the streptavidine-XL665. Therefore, the fluorescence emissions at 620 nm and 665 nm after excitation at 337 nm were measured in a HTRF reader, e.g. a Pherastar (BMG Labtechnologies, Offenburg, Germany) or a Viewlux (Perkin-Elmer). The ratio of the emissions at 665 nm and at […] was taken as the measure for the amount of phosphorylated substrate.

SMILES strings stand for the structures.

T1 sequence (P00533 25-1210): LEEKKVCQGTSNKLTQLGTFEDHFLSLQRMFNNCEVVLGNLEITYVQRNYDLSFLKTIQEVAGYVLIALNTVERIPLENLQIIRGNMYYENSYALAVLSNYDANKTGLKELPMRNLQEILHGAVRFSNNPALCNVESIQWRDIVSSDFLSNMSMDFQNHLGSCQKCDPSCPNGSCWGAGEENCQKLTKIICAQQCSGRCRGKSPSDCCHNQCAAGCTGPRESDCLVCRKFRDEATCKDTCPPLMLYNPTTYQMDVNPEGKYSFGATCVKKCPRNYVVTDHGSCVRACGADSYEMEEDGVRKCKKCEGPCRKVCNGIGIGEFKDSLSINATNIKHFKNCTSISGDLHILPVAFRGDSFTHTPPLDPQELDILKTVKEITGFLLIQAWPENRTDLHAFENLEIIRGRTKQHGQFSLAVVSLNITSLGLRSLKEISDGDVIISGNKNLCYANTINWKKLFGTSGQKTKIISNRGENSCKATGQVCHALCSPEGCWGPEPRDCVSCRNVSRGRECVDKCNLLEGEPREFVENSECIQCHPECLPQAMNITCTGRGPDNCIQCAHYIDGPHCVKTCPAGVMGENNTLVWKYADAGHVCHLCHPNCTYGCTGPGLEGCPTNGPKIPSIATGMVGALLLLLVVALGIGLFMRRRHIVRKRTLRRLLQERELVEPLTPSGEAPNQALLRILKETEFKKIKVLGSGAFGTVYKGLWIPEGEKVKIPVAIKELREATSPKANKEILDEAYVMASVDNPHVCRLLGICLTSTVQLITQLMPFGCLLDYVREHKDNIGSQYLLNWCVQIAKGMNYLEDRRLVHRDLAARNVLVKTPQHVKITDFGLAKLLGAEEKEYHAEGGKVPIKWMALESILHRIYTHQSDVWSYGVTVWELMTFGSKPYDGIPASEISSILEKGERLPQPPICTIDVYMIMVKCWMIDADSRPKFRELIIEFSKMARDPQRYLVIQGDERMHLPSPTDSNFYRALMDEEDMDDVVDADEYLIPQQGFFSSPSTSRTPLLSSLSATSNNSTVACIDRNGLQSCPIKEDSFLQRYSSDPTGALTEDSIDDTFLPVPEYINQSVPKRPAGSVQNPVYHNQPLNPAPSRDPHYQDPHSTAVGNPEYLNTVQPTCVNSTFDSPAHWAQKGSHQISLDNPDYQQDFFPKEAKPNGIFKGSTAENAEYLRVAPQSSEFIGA

Take `CC(=O)N[C@@H]1CCN(c2cc3c(NC(C)c4ccc(-c5ccccc5CN(C)C)s4)nc(C)nc3cn2)C1` (single isomer, unassigned) [Example 79]: the IC50 – broadly, the point on the concentration scale where inhibition reaches its midpoint – was greater than 20 µM. As for `CC(=O)N[C@@H]1CCN(c2cc3c(NC(C)c4ccc(-c5ccccc5CN(C)C)s4)nc(C)nc3cn2)C1` (single isomer, unassigned) [Example 80], the IC50 is greater than 20 µM. In the case of `CC(=O)N[C@H]1CCN(c2cc3c(NC(C)c4ccc(-c5ccccc5CN(C)C)s4)nc(C)nc3cn2)C1` (single isomer, unassigned) [Example 81], the IC50 is greater than 20 µM. The figure for `CC(=O)N[C@H]1CCN(c2cc3c(NC(C)c4ccc(-c5ccccc5CN(C)C)s4)nc(C)nc3cn2)C1` (single isomer, unassigned) [Example 82] is greater than 20 µM.
